# Experiments:
# [1] = plasma protein binding, given as fraction; ref Drugbank; cited from earlier work
# [2] = Normal-phase TLC on silica gel 60 F254 (Rf); format: physicochemical; details: water:methanol:acetonitrile 60:20:20, ammonium acetate pH 7.4
# [3] = HPLC on IAM (immobilized artificial membrane) column, retention factor; format: physicochemical; details: IAM.PC.DD.2 column; for k(IAM) retention factor: 10 mM phosphate buffer pH 7.4:acetonitrile 80:20; for logkIAM: logarithm of retention factor, phosphate buffer pH 7.4:acetonitrile 80:20
# Method: Chromatographic data also came from an experiment with a HPLC IAM (immobilized artificial membrane) column (Regis Technologies Inc.: IAM.PC.DD.2, 10 µm; 4.6 mm × 10 mm). The column contains a standard membrane consisting of a phospholipid bilayer. Organic solvents (acetonitrile and methanol) and water (J.T. Baker HPLC) were used in HPLC. Sigma phosphate buffered saline tablets were used to prepare the phosphate buffer. The mobile phase was a mixture of 10 mM phosphate buffer at pH 7.4 and acetonitrile in the ratio of 80:20 (v/v) [35]. The mobile phase flow was set at 0.5 mL/min; detection was carried out with a UV–Vis detector. The obtained values of the retention factor (k IAM) were transformed into a logarithmic form and entered into the statistical analysis (descriptor: log k IAM).
# [4] = Reversed-phase TLC on RP-2 silanized plates (Rf); format: physicochemical; details: silica gel 60 RP-2 F254 silanized; water:methanol:acetonitrile 60:20:20, ammonium acetate pH 7.4
# Method: The purity of the isolated substances was checked by TLC chromatography and densitometric scanning.
# APIs were subjected to chromatographic in column (HPLC) and thin layer (TLC) formats. TLC chromatography was carried out on 20 cm × 20 cm glass plates by Merck, covered with silica gel and the addition of a fluorescent indicator. Merck TLC silica gel 60 F254 was used for the normal phase (NP). In the reverse phase (RP), RP-2 silanized plates were used (Merck TLC Silica gel 60 RP-2 F254, silanized). The mobile phase was buffered with ammonium acetate to pH 7.4 (LACH-NER, ammonium acetate).
# Plates, after developing the chromatograms, were scanned using a densitometer (Desaga CD 60) with an analytical wavelength selected individually for drugs. The values of Rf (molecular descriptors: NP, RP) were determined.
# [5] = entering the CNS / not entering the CNS; ref Drugbank [36]; cited from earlier work
Compound,PB (protein binding) [1],NP (Rf from NP TLC plate) [2],k(IAM) retention factor [3],logkIAM [3],RP (Rf from RP-2 TLC plate) [4],CNS+/- [5]
CC(=O)Oc1ccccc1C(=O)O [acetylsalicylic acid],0.995,0.89,0.03,-1.52,0.98,1
COc1ccc(CCN2CCC(Nc3nc4ccccc4n3Cc3ccc(F)cc3)CC2)cc1 [astemizol],0.967,0.62,26.27,1.42,0.65,1
CC[C@H]1OC(=O)[C@H](C)[C@@H](O[C@H]2C[C@@](C)(OC)[C@@H](O)[C@H](C)O2)[C@H](C)[C@@H](O[C@@H]2O[C@H](C)C[C@H](N(C)C)[C@H]2O)[C@](C)(O)C[C@@H](C)CN(C)[C@H](C)[C@@H](O)[C@]1(C)O [azithromycin],0.29,0.63,0.06,-1.20,0.24,0
CNCCc1ccccn1 [betahistine],–,0.17,0.90,-0.05,0.31,1
CC(C)NCC(O)COc1ccc(COCCOC(C)C)cc1 (stereo not shown) [bisoprolol],0.3,0.67,6.74,0.83,0.57,0
O=C1CN=C(c2ccccn2)c2cc(Br)ccc2N1 [bromazepam],0.7,0.87,2.21,0.34,0.83,1
CCCCN1CCCCC1C(=O)Nc1c(C)cccc1C (stereo not shown) [bupivacaine],0.95,0.67,–,–,0.74,1
CCCCCOC(=O)Nc1nc(=O)n([C@@H]2O[C@H](C)[C@@H](O)[C@H]2O)cc1F [capecitabine],–,0.92,1.11,0.04,0.9,1
COc1ccccc1OCCNCC(O)COc1cccc2[nH]c3ccccc3c12 (stereo not shown) [carvedilol],0.98,0.73,–,–,–,0
CO/N=C(\C(=O)N[C@@H]1C(=O)N2C(C(=O)O)=C(COC(N)=O)CS[C@H]12)c1ccco1 [cefuroxime],0.5,0.97,1.69,0.23,0.88,0
Cc1ccc(-c2cc(C(F)(F)F)nn2-c2ccc(S(N)(=O)=O)cc2)cc1 [celecoxib],0.97,0.98,50.01,1.70,0.75,1
NS(=O)(=O)c1cc(C2(O)NC(=O)c3ccccc32)ccc1Cl (stereo not shown) [chlortalidone],0.75,0.96,1.32,0.12,–,1
CN/C(=N/CCSCc1nc[nH]c1C)NC#N [cimetidine],0.17,0.64,0.26,-0.58,0.88,0
COc1cc(N)c(Cl)cc1C(=O)NC1CCN(CCCOc2ccc(F)cc2)CC1OC (stereo not shown) [cisapride],0.975,0.64,57.99,1.76,0.65,1
CC[C@H]1OC(=O)[C@H](C)[C@@H](O[C@H]2C[C@@](C)(OC)[C@@H](O)[C@H](C)O2)[C@H](C)[C@@H](O[C@@H]2O[C@H](C)C[C@H](N(C)C)[C@H]2O)[C@](C)(OC)C[C@@H](C)C(=O)[C@H](C)[C@@H](O)[C@]1(C)O [clarithromycin],–,0.99,0.10,-1.02,0.83,0
CN1C(=O)CC(=O)N(c2ccccc2)c2cc(Cl)ccc21 [clobazam],0.85,0.95,2.58,0.41,0.79,1
Clc1cccc(Cl)c1N=C1NCCN1 [clonidine],0.3,0.49,2.83,0.45,0.73,1
CN1CCC(=C2c3ccccc3C=Cc3ccccc32)CC1 [cyproheptadine],0.975,0.45,23.79,1.38,0.45,1
CCOc1ccc(/C=C2\NCCc3cc(OCC)c(OCC)cc32)cc1OCC [drotaverine],–,0.61,31.24,1.49,0.55,1

Compound,PB (protein binding) [1],NP (Rf from NP TLC plate) [2],k(IAM) retention factor [3],logkIAM [3],RP (Rf from RP-2 TLC plate) [4],CNS+/- [5]
OCCOCCN1CCN(C(c2ccccc2)c2ccc(Cl)cc2)CC1 (stereo not shown) [hydroxyzine],0.93,0.55,13.82,1.14,–,1
COc1ccc2c(c1)c(CC(=O)O)c(C)n2C(=O)c1ccc(Cl)cc1 [indomethacin],0.97,–,1.08,0.03,–,1
O[C@@H]1CO[C@H]2[C@@H]1OC[C@@H]2O [isosorbide],–,0.26,0.21,-0.68,0.54,1
CCC(C)n1ncn(-c2ccc(N3CCN(c4ccc(OCC5COC(Cn6cncn6)(c6ccc(Cl)cc6Cl)O5)cc4)CC3)cc2)c1=O (stereo not shown) [itraconazole],0.998,0.96,–,–,0.86,0
O=C(c1ccccc1)c1ccc2n1CCC2C(=O)O (stereo not shown) [ketorolac],0.99,0.92,–,–,0.96,1
CC[C@@H](C(N)=O)N1CCCC1=O [levetiracetam],0.1,0.92,–,–,0.92,1
CCC[C@@H]1C[C@@H](C(=O)N[C@@H]([C@H]2O[C@H](SC)[C@H](O)[C@@H](O)[C@H]2O)[C@@H](C)O)N(C)C1 [lincomycin],0.7,0.91,–,–,–,0
O=C1Nc2ccc(Cl)cc2C(c2ccccc2Cl)=NC1O (stereo not shown) [lorazepam],0.87,–,9.04,0.96,–,1
Nc1ccc(O)c(C(=O)O)c1 [mesalazine],0.43,–,–,–,0.99,0
CN(C)C(=N)N=C(N)N [metformin],–,0.21,0.34,-0.47,0.78,1
COCCc1ccc(OCC(O)CNC(C)C)cc1 (stereo not shown) [metoprolol],–,0.48,4.32,0.64,0.28,0
CCOC(=O)C1=C(C)NC(C)=C(C(=O)OC)C1c1cccc([N+](=O)[O-])c1 (stereo not shown) [nitrendipine],0.99,0.97,–,–,0.86,0
NC(=O)N1c2ccccc2CC(=O)c2ccccc21 [oxcarbamazepine],0.4,0.91,–,–,0.91,1
CNC(=C[N+](=O)[O-])NCCSCc1ccc(CN(C)C)o1 [ranitidine],–,0.24,0.67,-0.17,0.81,0
CCCc1nn(C)c2c(=O)[nH]c(-c3cc(S(=O)(=O)N4CCN(C)CC4)ccc3OCC)nc12 [sildenafil],–,0.69,14.26,1.15,0.77,1
CC(C)NCC(O)c1ccc(NS(C)(=O)=O)cc1 (stereo not shown) [sotalol],–,0.48,1.35,0.13,0.85,1
CCCc1nc2c(C)cc(-c3nc4ccccc4n3C)cc2n1Cc1ccc(-c2ccccc2C(=O)O)cc1 [telmisartan],–,0.9,4.68,0.67,0.87,1
CC(C)(C)NC[C@H](O)COc1nsnc1N1CCOCC1 [timolol],0.1,0.34,–,–,0.97,0
OCCN1CCN(CC/C=C2/c3ccccc3Sc3ccc(Cl)cc32)CC1 [zuclopenthixol],0.985,0.47,48.73,1.69,–,1
